In PMC10828244, “Covalently Binding Adenosine A3 Receptor Agonist ICBM Irreversibly Reduces Voltage-Gated Ca^2+ Currents in Dorsal Root Ganglion Neurons” (Purinergic Signalling, 2023):

Assays:
[1] = biological target: T1, adenosine A3 receptor (A3AR) (Rattus norvegicus, UniProt P28647); assay: whole-cell patch clamp of Ca2+ currents in rat DRG neurons ([…]); effect occluded by ICBM pre-incubation; format: cell-based
T1 construct: gene Adora3; native receptor in isolated rat DRG neurons
T1 sequence (P28647 1-320): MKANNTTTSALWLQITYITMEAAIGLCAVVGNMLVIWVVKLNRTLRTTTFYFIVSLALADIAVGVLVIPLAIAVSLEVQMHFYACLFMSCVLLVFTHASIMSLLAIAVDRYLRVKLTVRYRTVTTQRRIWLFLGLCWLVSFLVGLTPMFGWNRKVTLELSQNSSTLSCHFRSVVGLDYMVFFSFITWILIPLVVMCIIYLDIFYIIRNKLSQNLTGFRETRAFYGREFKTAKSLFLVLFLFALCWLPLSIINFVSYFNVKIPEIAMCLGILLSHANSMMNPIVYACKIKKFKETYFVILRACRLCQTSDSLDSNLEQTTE

[2] = biological target: T1, adenosine A3 receptor (A3AR); assay: whole-cell patch clamp of Ca2+ currents in rat DRG neurons; washout, MRS1523 block and occlusion of Cl-IB-MECA; format: cell-based

For `CNC(=O)[C@H]1O[C@@H](n2cnc3c(NCc4cccc(I)c4)nc(Cl)nc32)[C@H](O)[C@@H]1O` [Cl-IB-MECA, 2-Chloro-N^6-(3-iodobenzyl)-adenosine-5′-N-methyluronamide], the “whole-cell patch clamp of Ca2+ currents in rat DRG neurons (30 nM); effect occlu” value [1] was “the prototypical A3AR agonist, Cl-IB-MECA, significantly decreases ICa (Fig. 2A–B) in these cells”.

For `CNC(=O)[C@H]1O[C@@H](n2cnc3c(NCc4cccc(N=C=S)c4)ncnc32)[C@H](O)[C@@H]1O` [ICBM, N^6-(3-Isothiocyanatobenzyl)-5′-N-methylcarboxamidoadenosine], the EC50 [2] was 11.7 nM.
